Reference: patent US10793563B2, “GCN2 inhibitors and uses thereof” (Merck Patent GmbH, priority 2018, dated 2020)

Key:
[1] = molecular target: GCN2 kinase (Homo sapiens (Human), UniProt Q9P2K8); experiment: GCN2 Enzyme Inhibition Assay (Transcreener ADP2 fluorescence polarization); format: biochemical; details: 280 μM ATP, 200 μM (RS)7 peptide, 4 nM GCN2, 25° C.; for Ki: Ki(app)
Summary of the method: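 Transcreener ADP2 fluorescence polarization detection of ADP from 4 nM GCN2 with (RS)7 substrate in 25 mM Tris-HCl pH 7.5, 50 mM NaCl, 10 mM MgCl2, 1 mM DTT. Compound pre-incubated with enzyme 10 min at 25 °C; reaction started by ATP, run 1 h at 25 °C. IC50 and Ki(app) by tight-binding fit.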

[2] = molecular target: intracellular GCN2 (phosphorylation of the GCN2 substrate eIF2α) (Homo sapiens (Human), UniProt Q9P2K8); experiment: GCN2 Cellular Inhibition Assay (AlphaScreen SureFire P-eIF2α Ser51, borrelidin-treated U2OS cells); format: cell-based; details: 10 μM borrelidin, 1 h, phosphorylated eIF2α Ser51, read-out: GCN2 Biomarker (IC50)
Summary of the method: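 U2OS cells adhered overnight, then given compound (top 40 μM, 4-fold serial dilutions) plus 10 μM borrelidin for 1 h at 37 °C. Lysates assayed for eIF2α phospho-Ser51 by AlphaScreen SureFire; % inhibition versus borrelidin-only wells.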

Chain of GCN2 kinase (Q9P2K8 whole entry): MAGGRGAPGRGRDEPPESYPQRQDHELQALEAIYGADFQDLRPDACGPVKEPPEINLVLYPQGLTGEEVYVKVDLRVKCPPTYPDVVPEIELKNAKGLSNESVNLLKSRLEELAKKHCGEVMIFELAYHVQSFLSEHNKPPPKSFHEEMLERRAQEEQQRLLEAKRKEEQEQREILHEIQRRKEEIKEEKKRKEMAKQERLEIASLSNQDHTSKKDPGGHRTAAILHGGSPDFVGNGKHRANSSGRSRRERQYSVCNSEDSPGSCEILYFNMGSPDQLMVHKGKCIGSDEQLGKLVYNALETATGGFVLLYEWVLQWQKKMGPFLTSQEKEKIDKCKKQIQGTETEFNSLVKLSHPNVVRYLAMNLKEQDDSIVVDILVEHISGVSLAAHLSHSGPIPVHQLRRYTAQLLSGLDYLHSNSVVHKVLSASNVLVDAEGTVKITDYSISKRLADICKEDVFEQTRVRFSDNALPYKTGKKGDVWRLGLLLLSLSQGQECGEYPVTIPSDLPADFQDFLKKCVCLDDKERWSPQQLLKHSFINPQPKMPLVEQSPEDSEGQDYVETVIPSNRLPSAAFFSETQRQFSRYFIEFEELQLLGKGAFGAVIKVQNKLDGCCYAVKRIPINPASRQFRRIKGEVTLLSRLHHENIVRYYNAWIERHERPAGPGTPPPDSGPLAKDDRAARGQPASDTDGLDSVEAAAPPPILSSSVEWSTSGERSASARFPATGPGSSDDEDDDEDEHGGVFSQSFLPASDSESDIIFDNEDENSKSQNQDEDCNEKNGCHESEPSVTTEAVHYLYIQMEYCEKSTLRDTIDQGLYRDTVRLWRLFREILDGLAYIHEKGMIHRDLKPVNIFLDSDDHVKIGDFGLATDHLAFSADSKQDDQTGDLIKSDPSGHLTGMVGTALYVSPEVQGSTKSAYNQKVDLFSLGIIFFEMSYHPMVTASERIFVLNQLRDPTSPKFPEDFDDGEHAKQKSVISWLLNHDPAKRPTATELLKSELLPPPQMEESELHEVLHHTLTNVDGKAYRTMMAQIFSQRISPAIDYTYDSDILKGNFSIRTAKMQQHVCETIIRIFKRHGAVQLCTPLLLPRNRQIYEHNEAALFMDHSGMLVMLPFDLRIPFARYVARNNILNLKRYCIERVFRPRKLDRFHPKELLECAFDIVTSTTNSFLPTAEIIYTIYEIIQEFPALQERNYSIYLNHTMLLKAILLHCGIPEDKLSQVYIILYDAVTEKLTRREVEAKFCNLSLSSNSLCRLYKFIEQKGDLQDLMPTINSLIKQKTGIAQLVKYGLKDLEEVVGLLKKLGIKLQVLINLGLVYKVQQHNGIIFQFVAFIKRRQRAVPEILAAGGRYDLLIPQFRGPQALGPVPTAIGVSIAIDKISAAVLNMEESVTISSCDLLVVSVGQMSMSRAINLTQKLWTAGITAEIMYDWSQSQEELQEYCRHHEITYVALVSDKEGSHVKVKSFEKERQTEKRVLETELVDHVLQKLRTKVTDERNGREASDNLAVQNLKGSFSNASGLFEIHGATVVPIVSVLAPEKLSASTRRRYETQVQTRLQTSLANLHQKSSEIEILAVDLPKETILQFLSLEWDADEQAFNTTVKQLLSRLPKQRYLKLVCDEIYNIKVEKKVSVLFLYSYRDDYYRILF
Chain of intracellular GCN2 (phosphorylation of the GCN2 substrate eIF2α) (Q9P2K8 whole entry): as above

Row | Compound | IC50 [1] [nM] | IC50 [2] [nM] | Ki [1] [nM]
1 | Cc1[nH]ncc1[C@H]1C[C@H](O)CN(c2ccnc(-c3cnc4ccc(C(F)(F)F)cn34)n2)C1 [I-307, (3 S, 5R)-5-(5-methyl-1H-pyrazol-4-yl)-1-(2-(6-(trifluoromethyl)imidazo[1,2-a]pyridin-3-yl)pyrimidin-4-yl)piperidin-3-ol] | 10 to 100 | 500 to 5000 | –
2 | CCOC1(N2CCN(c3ccnc(-c4cnc5ccc(C(F)(F)F)cn45)n3)C(C)C2c2cn[nH]c2)CC1 (stereo not drawn) [I-348, 3-(4-(4-(1-ethoxycyclopropyl)-2-methyl-3-(1H-pyrazol-4-yl)piperazin-1-yl)pyrimidin-2-yl)-6-(trifluoromethyl)imidazo[1,2-a]pyridine] | 10 to 100 | < 500 | –
3 | Cc1[nH]ncc1[C@@H]1CN(c2nccc(-c3cnc4ccc(Cl)cn34)n2)C[C@@H](C)O1 (stereo in doubt) [I-182, (2R,6R)-4-(4-(6-chloroimidazo[1,2-a]pyridin-3-yl)pyrimidin-2-yl)-2-methyl-6-(5-methyl-1H-pyrazol-4-yl)morpholine] | 10 to 100 | < 500 | –
4 | C[C@@H]1C[C@H](N=S(C)(C)=O)CN(c2ccnc(-c3cnc4ccc(C#N)cn34)n2)C1 [I-262, 3-(4-((3S,5R)-3-((dimethyl(oxo)-λ6-sulfaneylidene)amino)-5-methylpiperidin-1-yl)pyrimidin-2-yl)imidazo[1,2-a]pyridine-6-carbonitrile] | 10 to 100 | > 5000 | –
5 | C[C@@H]1C[C@H](N=S(C)(C)=O)CN(c2ccnc(-c3cnc4ccc(OC(F)(F)F)cn34)n2)C1 [I-290, dimethyl(((3 S,5R)-5-methyl-1-(2-(6-(trifluoromethoxy)imidazo[1,2-a]pyridin-3-yl)pyrimidin-4-yl)piperidin-3-yl)imino)-λ6-sulfanone] | 10 to 100 | 500 to 5000 | –
6 | O=C(CO)N1CCN(c2ccnc(-c3cnc4ccc(C(F)(F)F)cn34)n2)CC1c1cn[nH]c1 (stereo not drawn) [I-421, 1-(2-(1H-pyrazol-4-yl)-4-(2-(6-(trifluoromethyl)imidazo[1,2-a]pyridin-3-yl)pyrimidin-4-yl)piperazin-1-yl)-2-hydroxyethan-1-one] | 10 to 100 | > 5000 | –
7 | Fc1cc2ncc(-c3nccc(N4CCCC(c5cn[nH]c5)C4)n3)n2cc1Br (stereo not drawn) [I-326, 3-(4-(3-(1H-pyrazol-4-yl)piperidin-1-yl)pyrimidin-2-yl)-6-bromo-7-fluoroimidazo[1,2-a]pyridine] | < 10 | < 500 | –
8 | FC(F)(F)c1ccc2ncc(-c3nccc(N4CCN(C[C@@H]5CC56CCOCC6)[C@@H](c5cn[nH]c5)C4)n3)n2c1 [I-522, 3-(4-((S)-4-(((R)-6-oxaspiro[2.5]octan-1-yl)methyl)-3-(1H-pyrazol-4-yl)piperazin-1-yl)pyrimidin-2-yl)-6-(trifluoromethyl)imidazo[1,2-a]pyridine] | < 10 | < 500 | –
9 | CC1C(c2cn[nH]c2)N(C2COC2)CCN1c1ccnc(-c2cnc3ccc(C(F)(F)F)cn23)n1 (stereo not drawn) [I-322, 4-[2-methyl-4-(oxetan-3-yl)-3-(1H-pyrazol-4-yl)piperazin-1-yl]-2-[6-(trifluoromethyl)imidazo[1,2-a]pyridin-3-yl]pyrimidine] | 10 to 100 | < 500 | –
10 | O=C(CCn1ccnc1)N1CCN(c2ccnc(-c3cnc4ccc(C(F)(F)F)cn34)n2)CC1c1cn[nH]c1 (stereo not drawn) [I-422, 1-(2-(1H-pyrazol-4-yl)-4-(2-(6-(trifluoromethyl)imidazo[1,2-a]pyridin-3-yl)pyrimidin-4-yl)piperazin-1-yl)-3-(1H-imidazol-1-yl)propan-1-one] | 10 to 100 | > 5000 | –
11 | Cc1n[nH]cc1[C@@H]1CN(c2ccnc(-c3cnc4cc(Cl)c(C(F)(F)F)cn34)n2)C[C@@H](C)O1 [I-360, (2R,6R)-4-(2-(7-chloro-6-(trifluoromethyl)imidazo[1,2-a]pyridin-3-yl)pyrimidin-4-yl)-2-methyl-6-(3-methyl-1H-pyrazol-4-yl)morpholine] | < 10 | < 500 | –
12 | Cc1[nH]ncc1[C@H]1CN(c2nccc(-c3cnc4ccc(Cl)cn34)n2)C[C@H](C)O1 (stereo in doubt) [I-181, (2S,6S)-4-(4-(6-chloroimidazo[1,2-a]pyridin-3-yl)pyrimidin-2-yl)-2-methyl-6-(5-methyl-1H-pyrazol-4-yl)morpholine] | 10 to 100 | 500 to 5000 | –
13 | C[C@@H](NS(C)(=O)=O)[C@@H]1CN(c2ccnc(-c3cnc4ccc(C(F)(F)F)cn34)n2)CCO1 (stereo in doubt) [I-404, N—((R)-1-((S)-4-(2-(6-(trifluoromethyl)imidazo[1,2-a]pyridin-3-yl)pyrimidin-4-yl)morpholin-2-yl)ethyl)methanesulfonamide] | 10 to 100 | 500 to 5000 | –
14 | COCCn1cc([C@@H]2C[C@@H](C)CN(c3nccc(-c4cnc5ccc(C(F)(F)F)cn45)n3)C2)cn1 [I-145, 3-(2-((3S,5R)-3-(1-(2-methoxyethyl)-1H-pyrazol-4-yl)-5-methylpiperidin-1-yl)pyrimidin-4-yl)-6-(trifluoromethyl)imidazo[1,2-a]pyridine] | 100 to 1000 | < 500 | –
15 | FC(F)(F)c1ccc2ncc(-c3nsc(N4CCOC(c5cn[nH]c5)C4)n3)n2c1 (stereo not drawn) [I-104, 2-(1H-pyrazol-4-yl)-4-(3-(6-(trifluoromethyl)imidazo[1,2-a]pyridin-3-yl)-1,2,4-thiadiazol-5-yl)morpholine] | – | 500 to 5000 | 10 to 100
16 | FC(F)(F)c1ccc2ncc(-c3nccc(N4CCCC5(CNC5)C4)n3)n2c1 [I-413, 6-(2-(6-(trifluoromethyl)imidazo[1,2-a]pyridin-3-yl)pyrimidin-4-yl)-2,6-diazaspiro[3.5]nonane] | 100 to 1000 | > 5000 | –
17 | CC1CN(c2nccc(-c3cnc4ccc(C(F)(F)F)cn34)n2)C(C)C(c2cn[nH]c2)N1 (single isomer, unassigned) [I-33, 3-[2-[2,5-Dimethyl-3-(1H-pyrazol-4-yl)piperazin-1-yl]pyrimidin-4-yl]-6-(trifluoromethyl)imidazo[1,2-a]pyridine] | – | > 5000 | 10 to 100
18 | C[C@H]1C[C@@H](c2cn[nH]c2)CN(c2nccc(-c3cnc4ccc(Cl)cn34)n2)C1 [I-199, 6-chloro-3-(2-((3S,5S)-3-methyl-5-(1H-pyrazol-4-yl)piperidin-1-yl)pyrimidin-4-yl)imidazo[1,2-a]pyridine] | < 10 | < 500 | –
19 | C[C@H]1CN(c2nccc(-c3cnc4cc(F)c(Cl)cn34)n2)C[C@H](c2cn[nH]c2)O1 [I-275, (2S,6S)-4-(4-(6-chloro-7-fluoroimidazo[1,2-a]pyridin-3-yl)pyrimidin-2-yl)-2-methyl-6-(1H-pyrazol-4-yl)morpholine] | < 10 | 500 to 5000 | –
20 | c1ccc(Oc2ccc3ncc(-c4nccc(N5CCCC(c6cn[nH]c6)C5)n4)n3c2)cc1 (stereo not drawn) [I-329, 2-{6-phenoxyimidazo[1,2-a]pyridin-3-yl}-4-[3-(1H-pyrazol-4-yl)piperidin-1-yl]pyrimidine] | 10 to 100 | < 500 | –
21 | NC(=O)C1(O)CCCN(c2ccnc(-c3cnc4ccc(C(F)(F)F)cn34)n2)C1 (stereo not drawn) [I-213, 3-hydroxy-1-(2-(6-(trifluoromethyl)imidazo[1,2-a]pyridin-3-yl)pyrimidin-4-yl)piperidine-3-carboxamide] | 10 to 100 | 500 to 5000 | –
22 | C[C@@H]1[C@@H](CNS(C)(=O)=O)N(C2CC2)[C@H](C)CN1c1ccnc(-c2cnc3ccc(C(F)(F)F)cn23)n1 (stereo in doubt) [I-493, N-(((2R,3R,6R)-1-cyclopropyl-3,6-dimethyl-4-(2-(6-(trifluoromethyl)imidazo[1,2-a]pyridin-3-yl)pyrimidin-4-yl)piperazin-2-yl)methyl)methanesulfonamide] | 10 to 100 | < 500 | –
23 | C[C@@H]1C[C@H](N=S(C)(C)=O)CN(c2ccnc(-c3cnc4ccc(Br)cn34)n2)C1 [I-289, (((3 S,5R)-1-(2-(6-bromoimidazo[1,2-a]pyridin-3-yl)pyrimidin-4-yl)-5-methylpiperidin-3-yl)imino)dimethyl-λ6-sulfanone] | 10 to 100 | 500 to 5000 | –
24 | C[C@@H]1C[C@H](N=S(C)(C)=O)CN(c2ccnc(-c3cnc4ccc(OC(F)F)cn34)n2)C1 [I-291, dimethyl(((3 S,5R)-5-methyl-1-(2-(6-(difluoromethoxy)imidazo[1,2-a]pyridin-3-yl)pyrimidin-4-yl)piperidin-3-yl)imino)-λ6-sulfanone] | 10 to 100 | 500 to 5000 | –
25 | C[C@H]1C[C@H](c2cn[nH]c2)CN(c2nccc(-c3cnc4ccc(C5CC5)cn34)n2)C1 [I-235, 6-cyclopropyl-3-(2-((3S,5R)-3-methyl-5-(1H-pyrazol-4-yl)piperidin-1-yl)pyrimidin-4-yl)imidazo[1,2-a]pyridine] | 10 to 100 | < 500 | –
26 | Cc1cnc(N2C[C@@H](C)C[C@H](c3cn[nH]c3)C2)nc1-c1cnc2ccc(Cl)cn12 (stereo in doubt) [I-197, 6-chloro-3-(5-methyl-2-((3 S, 5R)-3-methyl-5-(1H-pyrazol-4-yl)piperidin-1-yl)pyrimidin-4-yl)imidazo[1,2-a]pyridine] | 10 to 100 | < 500 | –
27 | FC(F)(F)c1ccc2ncc(-c3nccc(N4CCNC(c5cn[nH]c5)C4)n3)n2c1 (stereo not drawn) [I-351, 3-(4-(3-(1H-pyrazol-4-yl)piperazin-1-yl)pyrimidin-2-yl)-6-(trifluoromethyl)imidazo[1,2-a]pyridine] | < 10 | < 500 | –
